Source: US9433572B2, “Pomegranate based skin protectant and topical application” (POM Wonderful, LLC, priority 2008, dated 2016)

Test system: lipid peroxyl radicals
Test: In vivo bleaching of beta-carotene applied to the skin under UVA (lipid peroxyl radical scavenging)
Settings: human forearm skin, 2 mg/cm^2, UVA
Method: The protective effect of pomegranate-derived skin cream from the Example 4 was determined by assessing lipid peroxyl free radical scavenging capacity on the skin. Free radicals have been implicated in many of undesirable aspects of skin aging whether due to intrinsic cause or to exposure to UV radiation. Carotenoids like beta-carotene are efficient antioxidants scavenging singlet molecular oxygen and peroxyl radicals generated in during photooxidation. The bleaching of carotenoids has been used to evaluate the auto-oxidation activity of natural products. This technique can be used to evaluate, in vivo in non-invasive way, the ability of skin cream products to scavenge lipid peroxyl radicals. Basically, the method includes measuring the bleaching of beta-carotene applied to the skin when irradiated by UVA. […] An individual skin type is determined by an Individual Topology Angle (ITA), which can be found by using the following formula: […]*)×180/3.1415. Dr. Scholl's® Round Adhesive callus pad (Schering-Plough, Kenilworth, N.J.) were placed on the volar surface of the designated forearm (pre-cleaned with alcohol) of subjects. […] A baseline chromameter reading is taken after all of the callus pads have been applied. 2 mg/cm^2 of test skin cream and the positive control are applied in duplicate to each of the 2 sites. This is accomplished by means of a pre-calibrated syringe or by weighing the appropriate test material amount in a weigh boat. The test product and positive control are allowed to set on the forearm at ambient temperature for 15 minutes. The chromameter is used to measure the b* parameter of the coloration of the treated skin. Measurements are taken on the treated and untreated sites. The beta-carotene solution is then applied by means of a finger cot to obtain a uniform, homgeous orange color on all sites (pre-treated and non-treated), excluding the two control sites. The chromameter is used to measure the b* component of each site, post-application of the beta-carotene. […] The total exposure to UVA radiation is 6.0 J/cm^2. […]

CC1=C(/C=C/C(C)=C/C=C/C(C)=C/C=C/C=C(C)/C=C/C=C(C)/C=C/C2=C(C)CCCC2(C)C)C(C)(C)CCC1 [®-carotene, beta-carotene]
Mean of Color Index (at 10 minutes): 42% | Mean of Color Index (at 30 minutes): 16% | Mean of Color Index (at 60 minutes): 0%
